Measurements: patent US20250171438A1 (Agios Pharmaceuticals, Inc., priority 2022, published 2025)

Target: T1, human PAH with the R408W mutation (Homo sapiens, UniProt P00439, R408W)
T1 construct: expressed in transfected cells
T1 sequence (P00439 1-452 R408W): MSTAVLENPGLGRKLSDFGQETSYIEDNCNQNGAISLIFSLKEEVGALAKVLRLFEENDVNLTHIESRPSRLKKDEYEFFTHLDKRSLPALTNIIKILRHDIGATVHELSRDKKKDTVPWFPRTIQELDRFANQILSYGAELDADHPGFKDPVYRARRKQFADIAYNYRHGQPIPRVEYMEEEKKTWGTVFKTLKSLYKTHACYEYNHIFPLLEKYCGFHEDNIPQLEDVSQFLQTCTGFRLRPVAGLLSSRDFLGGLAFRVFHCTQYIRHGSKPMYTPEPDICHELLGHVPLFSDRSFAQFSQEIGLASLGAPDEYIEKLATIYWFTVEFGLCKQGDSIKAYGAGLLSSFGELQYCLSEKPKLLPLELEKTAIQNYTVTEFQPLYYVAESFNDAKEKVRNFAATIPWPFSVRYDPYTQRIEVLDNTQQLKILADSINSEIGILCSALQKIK
Assay: Cell Based Phenylalanine Flux Assay
Settings: A375 cells expressing human R408W PAH; 24 hrs compound incubation; 13C-Tyrosine by LC-MS; average where tested multiple times; read-out: AC50

SMILES	AC50
O=C(CCc1nccs1)N1CCc2[nH]cnc2[C@H]1c1nc2ccc(Cl)cc2[nH]1 [Example 910, (S)-1-(4-(6-chloro-1H-benzo[d]imidazol-2-yl)-6,7-dihydro-1H-imidazo[4,5-c]pyridin-5(4H)-yl)-3-(thiazol-2-yl)propan-1-one]	500 to 1000 nM
O=C(CCC1CCCC1)N1CCc2[nH]cnc2[C@@H]1c1nc2ccccc2[nH]1 [Example 912, (R)-1-(4-(1H-benzo[d]imidazol-2-yl)-6,7-dihydro-1H-imidazo[4,5-c]pyridin-5(4H)-yl)-3-cyclopentylpropan-1-one]	> 5000 nM
O=C(c1cncs1)N1CCc2[nH]cnc2[C@H]1c1nc2ccccc2[nH]1 [Example 914, (S)-(4-(1H-benzo[d]imidazol-2-yl)-6,7-dihydro-1H-imidazo[4,5-c]pyridin-5(4H)-yl)(thiazol-5-yl)methanone]	500 to 1000 nM
O=C(c1nc(Cl)cs1)N1CCc2[nH]cnc2[C@H]1c1nc2ccccc2[nH]1 [Example 917, (S)-(4-(1H-benzo[d]imidazol-2-yl)-6,7-dihydro-1H-imidazo[4,5-c]pyridin-5(4H)-yl)(4-chlorothiazol-2-yl)methanone]	500 to 1000 nM
COc1cccc(CCCC(=O)N2CCc3[nH]cnc3[C@@H]2c2nc3ccccc3[nH]2)c1 [Example 918, (R)-1-(4-(1H-benzo[d]imidazol-2-yl)-6,7-dihydro-1H-imidazo[4,5-c]pyridin-5(4H)-yl)-4-(3-methoxyphenyl)butan-1-one]	> 5000 nM
COc1cccc(CCCC(=O)N2CCc3[nH]cnc3[C@H]2c2nc3ccccc3[nH]2)c1 [Example 919, (S)-1-(4-(1H-benzo[d]imidazol-2-yl)-6,7-dihydro-1H-imidazo[4,5-c]pyridin-5(4H)-yl)-4-(3-methoxyphenyl)butan-1-one]	1000 to 5000 nM
O=C(c1ncc(Cl)s1)N1CCc2[nH]cnc2[C@@H]1c1nc2ccccc2[nH]1 [Example 920, (R)-(4-(1H-benzo[d]imidazol-2-yl)-6,7-dihydro-1H-imidazo[4,5-c]pyridin-5(4H)-yl)(5-chlorothiazol-2-yl)methanone]	> 5000 nM
O=C(c1ncc(Cl)s1)N1CCc2[nH]cnc2[C@H]1c1nc2ccccc2[nH]1 [Example 921, (S)-(4-(1H-benzo[d]imidazol-2-yl)-6,7-dihydro-1H-imidazo[4,5-c]pyridin-5(4H)-yl)(5-chlorothiazol-2-yl)methanone]	500 to 1000 nM
O=C(c1cnn2ccccc12)N1CCc2[nH]cnc2[C@H]1c1nc2ccccc2[nH]1 [Example 923, (S)-(4-(1H-benzo[d]imidazol-2-yl)-6,7-dihydro-1H-imidazo[4,5-c]pyridin-5(4H)-yl)(pyrazolo[1,5-a]pyridin-3-yl)methanone]	500 to 1000 nM
O=C(c1cnn2ccc(Br)cc12)N1CCc2[nH]cnc2[C@H]1c1nc2ccccc2[nH]1 [Example 925, (S)-(4-(1H-benzo[d]imidazol-2-yl)-6,7-dihydro-3H-imidazo[4,5-c]pyridin-5(4H)-yl)(5-bromopyrazolo[1,5-a]pyridin-3-yl)methanone]	1000 to 5000 nM
O=C(c1ccccc1)N1CCc2[nH]cnc2[C@H]1c1nc2ccccc2[nH]1 [Example 928, (S)-(4-(1H-benzo[d]imidazol-2-yl)-1,4,6,7-tetrahydro-5H-imidazo[4,5-c]pyridin-5-yl)(phenyl)methanone]	500 to 1000 nM
O=C(CC1CCCC1)N1CCc2[nH]cnc2[C@H]1c1nc2ccccc2[nH]1 [Example 929, (S)-1-(4-(1H-benzo[d]imidazol-2-yl)-6,7-dihydro-1H-imidazo[4,5-c]pyridin-5(4H)-yl)-2-cyclopentylethanone]	< 500 nM
O=C(CC1CC1)N1CCc2[nH]cnc2[C@H]1c1nc2ccccc2[nH]1 [Example 931, (S)-1-(4-(1H-benzo[d]imidazol-2-yl)-6,7-dihydro-1H-imidazo[4,5-c]pyridin-5(4H)-yl)-2-cyclopropylethanone]	< 500 nM
O=C(c1nccs1)N1CCc2[nH]cnc2[C@@H]1c1nc2ccc(Br)cc2[nH]1 [Example 932, (R)-(4-(6-bromo-1H-benzo[d]imidazol-2-yl)-6,7-dihydro-1H-imidazo[4,5-c]pyridin-5(4H)-yl)(thiazol-2-yl)methanone]	> 5000 nM
O=C(CCC1CC1)N1CCc2[nH]cnc2[C@@H]1c1nc2ccc(Br)cc2[nH]1 [Example 934, (R)-1-(4-(6-bromo-1H-benzo[d]imidazol-2-yl)-6,7-dihydro-1H-imidazo[4,5-c]pyridin-5(4H)-yl)-3-cyclopropylpropan-1-one]	1000 to 5000 nM
O=C(CCC1CC1)N1CCc2[nH]cnc2[C@H]1c1nc2ccc(Br)cc2[nH]1 [Example 935, (S)-1-(4-(6-bromo-1H-benzo[d]imidazol-2-yl)-6,7-dihydro-1H-imidazo[4,5-c]pyridin-5(4H)-yl)-3-cyclopropylpropan-1-one]	< 500 nM
O=C(c1cnn2ccccc12)N1CCc2[nH]cnc2[C@H]1c1nc2ccc(Cl)cc2[nH]1 [Example 936, (S)-(4-(6-chloro-1H-benzo[d]imidazol-2-yl)-6,7-dihydro-1H-imidazo[4,5-c]pyridin-5(4H)-yl)(pyrazolo[1,5-a]pyridin-3-yl)methanone]	1000 to 5000 nM
O=C(c1cnn2ccccc12)N1CCc2[nH]cnc2[C@@H]1c1nc2ccc(Cl)cc2[nH]1 [Example 937, (R)-(4-(6-chloro-1H-benzo[d]imidazol-2-yl)-6,7-dihydro-1H-imidazo[4,5-c]pyridin-5(4H)-yl)(pyrazolo[1,5-a]pyridin-3-yl)methanone]	1000 to 5000 nM
O=C(c1cnn2ccccc12)N1CCc2[nH]cnc2[C@H]1c1nc2ccc(Br)cc2[nH]1 [Example 940, (S)-(4-(6-bromo-1H-benzo[d]imidazol-2-yl)-6,7-dihydro-1H-imidazo[4,5-c]pyridin-5(4H)-yl)(pyrazolo[1,5-a]pyridin-3-yl)methanone]	500 to 1000 nM
O=C(c1cnn2ccccc12)N1CCc2[nH]cnc2[C@@H]1c1nc2ccc(Br)cc2[nH]1 [Example 941, (R)-(4-(6-bromo-1H-benzo[d]imidazol-2-yl)-6,7-dihydro-1H-imidazo[4,5-c]pyridin-5(4H)-yl)(pyrazolo[1,5-a]pyridin-3-yl)methanone]	1000 to 5000 nM
CC(C)(C)CCC(=O)N1CCc2[nH]cnc2[C@@H]1c1nc2ccc(Br)cc2[nH]1 [Example 943, (R)-1-(4-(6-bromo-1H-benzo[d]imidazol-2-yl)-6,7-dihydro-1H-imidazo[4,5-c]pyridin-5(4H)-yl)-4,4-dimethylpentan-1-one]	1000 to 5000 nM

Now from value to compound:

AC50	SMILES
500 to 1000 nM	O=C(CCC1CCCC1)N1CCc2[nH]cnc2[C@H]1c1nc2ccccc2[nH]1 [Example 913, (S)-1-(4-(1H-benzo[d]imidazol-2-yl)-6,7-dihydro-1H-imidazo[4,5-c]pyridin-5(4H)-yl)-3-cyclopentylpropan-1-one]
> 5000 nM	O=C(c1cncs1)N1CCc2[nH]cnc2[C@@H]1c1nc2ccccc2[nH]1 [Example 915, (R)-(4-(1H-benzo[d]imidazol-2-yl)-6,7-dihydro-1H-imidazo[4,5-c]pyridin-5(4H)-yl)(thiazol-5-yl)methanone]
> 5000 nM	O=C(c1cnn2ccccc12)N1CCc2[nH]cnc2[C@@H]1c1nc2ccccc2[nH]1 [Example 922, (R)-(4-(1H-benzo[d]imidazol-2-yl)-6,7-dihydro-1H-imidazo[4,5-c]pyridin-5(4H)-yl)(pyrazolo[1,5-a]pyridin-3-yl)methanone]
500 to 1000 nM	O=C(c1cnn2cc(F)ccc12)N1CCc2[nH]cnc2[C@H]1c1nc2ccccc2[nH]1 [Example 924, (S)-(4-(1H-benzo[d]imidazol-2-yl)-6,7-dihydro-1H-imidazo[4,5-c]pyridin-5(4H)-yl)(6-fluoropyrazolo[1,5-a]pyridin-3-yl)methanone]
< 500 nM	CC(C)(C)CC(=O)N1CCc2[nH]cnc2[C@H]1c1nc2ccccc2[nH]1 [Example 930, (S)-1-(4-(1H-benzo[d]imidazol-2-yl)-6,7-dihydro-1H-imidazo[4,5-c]pyridin-5(4H)-yl)-3,3-dimethylbutan-1-one]
1000 to 5000 nM	O=C(c1nccs1)N1CCc2[nH]cnc2[C@H]1c1nc2ccc(Br)cc2[nH]1 [Example 933, (S)-(4-(6-bromo-1H-benzo[d]imidazol-2-yl)-6,7-dihydro-1H-imidazo[4,5-c]pyridin-5(4H)-yl)(thiazol-2-yl)methanone]
1000 to 5000 nM	O=C(CCC1CC1)N1CCc2[nH]cnc2[C@@H]1c1nc2ccc(Cl)cc2[nH]1 [Example 938, (R)-1-(4-(6-chloro-1H-benzo[d]imidazol-2-yl)-6,7-dihydro-1H-imidazo[4,5-c]pyridin-5(4H)-yl)-3-cyclopropylpropan-1-one]
< 500 nM	O=C(CCC1CC1)N1CCc2[nH]cnc2[C@H]1c1nc2ccc(Cl)cc2[nH]1 [Example 939, (S)-1-(4-(6-chloro-1H-benzo[d]imidazol-2-yl)-6,7-dihydro-1H-imidazo[4,5-c]pyridin-5(4H)-yl)-3-cyclopropylpropan-1-one]
500 to 1000 nM	CC(C)(C)CCC(=O)N1CCc2[nH]cnc2[C@H]1c1nc2ccc(Br)cc2[nH]1 [Example 942, (S)-1-(4-(6-bromo-1H-benzo[d]imidazol-2-yl)-6,7-dihydro-1H-imidazo[4,5-c]pyridin-5(4H)-yl)-4,4-dimethylpentan-1-one]
500 to 1000 nM	O=C(c1cnn2ccc(F)cc12)N1CCc2[nH]cnc2[C@H]1c1nc2ccccc2[nH]1 [Example 944, (S)-(4-(1H-benzo[d]imidazol-2-yl)-6,7-dihydro-1H-imidazo[4,5-c]pyridin-5(4H)-yl)(5-fluoropyrazolo[1,5-a]pyridin-3-yl)methanone]
